ChEMBL document CHEMBL1201862, “PubChem BioAssay data set” (2004)
Active and inactive are the calls of the source.

Legend:
[1] = PAR1 agonist-induced platelet activation inhibition – cell-based, fluorescence, flow cytometry, human platelets, dose response (AID 2511); type: functional
[2] = blockers of SFLLRN-triggered platelet ATP secretion – cell-based, human platelets, luminescence, dry powder, dose response (AID 493100); type: functional
[3] = Luminescence Cell-Based Dose Confirmation HTS to Identify Inhibitors of Platelet Dense Granule Release. [Related pubchem assays: 1663 (Primary HTS), 1678 (Summary of Project)]; type: functional
[4] = Luminescence Cell-Based Dose Response Follow up to Identify Inhibitors of Platelet Dense Granule Release. [Related pubchem assays (depositor defined):AID1663, AID1678, AID2398]; type: functional
[5] = target: Luciferin 4-monooxygenase (Photinus pyralis, UniProt P08659); experiment: inhibition of purified Photinus pyralis luciferase – biochemical, luminescence, dose response (AID 1891)
Candida albicans [6] = experiment: antifungal activity against resistant Candida strain – CaCi-8, fluconazole, Alamar Blue, dry powder, dose response (AID 488807); type: functional, organism-based
Escherichia coli [7] = experiment: microbe, parasite or virus in culture
Escherichia coli [8] = experiment: microbe, parasite or virus in culture; remark: listed apart in the source
Mu-type opioid receptor = Mu-type opioid receptor (Homo sapiens, UniProt P35372); experiment: (§1) Counterscreen for agonists of heterodimerization of the mu 1 (OPRM1) and delta 1 (OPRD1) opioid receptors: Luminescence-based cell-based high throughput dose response assay to identify agonists of OPRM1 homodimerization.; type: functional
[9] = target: 5-hydroxytryptamine receptor 5A (Homo sapiens, UniProt P47898); experiment: Counterscreen for agonists of OPRM1-OPRD1 heterodimerization: luminescence-based cell-based high throughput dose response assay to identify agonists of 5-hydroxytryptamine (serotonin) 5A receptor (HTR5A). [Related pubchem assays (depositor defined):AID504326, AID504355, AID504692, AID504904, AID504905]; type: functional
[10] = target: Delta-type opioid receptor (Homo sapiens, UniProt P41143); experiment: as §1, with “of OPRD1” for “of OPRM1”, “homodimerization. [Related pubchem assays (depositor defined):AID504326, AID504355, AID504692, AID504904, AID504905]” for “homodimerization.”; type: functional
Candida albicans [11] = experiment: single-agent antifungal toxicity in C. albicans – CaCi-2 strain, Alamar Blue, dry powder, set 2, counter-screen for antifungal drug resistance project, dose response (AID 488893); type: functional, organism-based
Candida albicans [12] = experiment: fluconazole-resistant Candida strain growth inhibitors – CaCi-8 strain, dry powder, set 4, dose response (AID 488950); type: functional, organism-based
Candida albicans [13] = experiment: Candida growth reduction in fluconazole presence – CaCi-2 strain, Alamar Blue, dry powder, set 2, antifungal resistance reversal project, dose response (AID 488930); type: functional, organism-based
Candida albicans [14] = experiment: C. albicans growth inhibition with fluconazole – CaCi-2 strain, Alamar Blue, dry powder, set 4, dose response (AID 488943); type: functional, organism-based
Candida albicans [15] = experiment: resistant Candida growth with fluconazole co-treatment – CaCi-8 strain, Alamar Blue, dry powder, set 2, dose response (AID 488909); type: functional, organism-based
A-375 [16] = experiment: MITF: Counter assay: A375 proliferation Measured in Cell-Based System Using Plate Reader - 2084-03_Inhibitor_Dose_DryPowder_Activity. [Related pubchem assays (depositor defined):AID488944]; type: functional; conditions: Homo sapiens
[17] = target: Glucose-6-phosphate 1-dehydrogenase (Homo sapiens, UniProt P11413); experiment: inhibition of Homo sapiens G6PD, dose series – biochemical, fluorescence, selectivity assay for P. falciparum G6PD inhibitor project, dose response (AID 504792); type: functional
[18] = rise of 4N DNA cells, HeLa – IC50, dose response (AID 1117351); type: functional, cell-based
A-375 [19] = experiment: proliferation inhibition in MITF-low A375 cells – cell-based, cherry-pick samples, set 2, counter-screen for MITF modulator project, dose response (AID 540335); type: functional; conditions: Homo sapiens
[20] = reduced cellular PGC1a acetyl-lysine signal – cell-based, cherry-picked samples, dose response (AID 720514); type: functional;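 note: potency may reflect raised or lowered acetylation signal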
[21] = rise of 2N DNA cells, HeLa – IC50, dose response (AID 1117349); type: functional, cell-based

Sequence of Mu-type opioid receptor (P35372 whole entry): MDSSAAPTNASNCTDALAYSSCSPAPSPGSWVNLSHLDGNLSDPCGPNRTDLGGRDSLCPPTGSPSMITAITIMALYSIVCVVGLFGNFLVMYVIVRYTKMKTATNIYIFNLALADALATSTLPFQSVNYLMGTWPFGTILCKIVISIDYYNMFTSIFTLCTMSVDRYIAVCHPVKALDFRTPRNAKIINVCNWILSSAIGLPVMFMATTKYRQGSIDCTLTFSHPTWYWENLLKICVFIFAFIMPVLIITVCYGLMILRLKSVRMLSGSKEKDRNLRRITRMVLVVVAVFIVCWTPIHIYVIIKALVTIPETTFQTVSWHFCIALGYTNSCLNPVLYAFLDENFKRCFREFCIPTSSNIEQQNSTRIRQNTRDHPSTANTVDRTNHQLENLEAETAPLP
Sequence of 5-hydroxytryptamine receptor 5A (P47898 whole entry): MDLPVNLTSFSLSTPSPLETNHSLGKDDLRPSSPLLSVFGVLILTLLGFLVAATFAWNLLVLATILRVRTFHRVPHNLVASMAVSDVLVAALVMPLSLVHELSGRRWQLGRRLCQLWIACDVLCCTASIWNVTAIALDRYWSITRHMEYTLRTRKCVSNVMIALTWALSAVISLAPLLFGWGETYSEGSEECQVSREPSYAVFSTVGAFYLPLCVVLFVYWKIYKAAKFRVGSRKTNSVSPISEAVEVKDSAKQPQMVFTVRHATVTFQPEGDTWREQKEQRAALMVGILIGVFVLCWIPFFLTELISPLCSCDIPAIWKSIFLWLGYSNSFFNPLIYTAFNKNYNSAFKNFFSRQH
Sequence of Glucose-6-phosphate 1-dehydrogenase (P11413 whole entry): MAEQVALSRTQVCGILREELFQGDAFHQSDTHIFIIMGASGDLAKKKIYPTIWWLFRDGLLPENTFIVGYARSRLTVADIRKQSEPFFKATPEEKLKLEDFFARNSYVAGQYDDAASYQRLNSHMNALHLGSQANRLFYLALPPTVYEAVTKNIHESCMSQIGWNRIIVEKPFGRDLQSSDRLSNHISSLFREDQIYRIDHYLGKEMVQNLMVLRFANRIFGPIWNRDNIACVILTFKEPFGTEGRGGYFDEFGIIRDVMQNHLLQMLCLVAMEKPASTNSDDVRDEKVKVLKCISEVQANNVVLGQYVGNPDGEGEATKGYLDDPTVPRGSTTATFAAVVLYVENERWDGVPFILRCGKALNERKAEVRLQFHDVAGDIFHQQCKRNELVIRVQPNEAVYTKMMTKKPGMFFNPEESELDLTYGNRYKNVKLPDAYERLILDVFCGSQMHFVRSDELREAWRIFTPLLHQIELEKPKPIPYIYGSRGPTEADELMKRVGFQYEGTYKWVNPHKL
Sequence of Delta-type opioid receptor (P41143 whole entry): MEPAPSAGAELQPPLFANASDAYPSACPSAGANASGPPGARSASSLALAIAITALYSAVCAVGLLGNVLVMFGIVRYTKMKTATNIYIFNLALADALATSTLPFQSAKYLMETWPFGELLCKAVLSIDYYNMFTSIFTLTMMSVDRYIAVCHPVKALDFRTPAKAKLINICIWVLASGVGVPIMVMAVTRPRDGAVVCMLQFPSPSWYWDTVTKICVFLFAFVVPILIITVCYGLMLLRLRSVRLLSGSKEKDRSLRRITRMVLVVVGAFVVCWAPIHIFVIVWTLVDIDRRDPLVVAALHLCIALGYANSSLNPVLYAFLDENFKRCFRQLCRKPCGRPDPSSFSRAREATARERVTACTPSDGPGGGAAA
Sequence of Luciferin 4-monooxygenase (P08659 whole entry): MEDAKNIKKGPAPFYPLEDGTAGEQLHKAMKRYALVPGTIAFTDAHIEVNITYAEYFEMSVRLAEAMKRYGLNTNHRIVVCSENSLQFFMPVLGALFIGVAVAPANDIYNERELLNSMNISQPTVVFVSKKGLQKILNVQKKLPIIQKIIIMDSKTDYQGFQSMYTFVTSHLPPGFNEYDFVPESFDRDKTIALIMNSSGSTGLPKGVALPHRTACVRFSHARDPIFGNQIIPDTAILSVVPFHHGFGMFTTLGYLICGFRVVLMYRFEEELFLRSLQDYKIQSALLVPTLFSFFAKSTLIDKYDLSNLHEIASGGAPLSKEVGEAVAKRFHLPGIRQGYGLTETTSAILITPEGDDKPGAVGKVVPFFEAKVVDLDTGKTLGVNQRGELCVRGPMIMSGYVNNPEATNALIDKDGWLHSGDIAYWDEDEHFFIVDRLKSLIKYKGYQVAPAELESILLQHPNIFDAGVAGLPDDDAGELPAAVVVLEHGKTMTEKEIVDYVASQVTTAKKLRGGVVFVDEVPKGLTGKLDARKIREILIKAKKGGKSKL

## Cc1ccc(-n2c(N)c(C#N)c(-c3ccc(Cl)cc3)c(C#N)c2=O)cc1
[1]
  EC50: < 3 µM (active)
[2]
  AC50: 14.3 µM (active)
[3]
  EC50: 4.94 µM (active)
[4]
  EC50: 0.623 µM (active)
[5]
  EC50: > 112 µM (not active)

## COC(=O)Cn1nc(-c2ccccc2)c2cc(Cl)ccc21
Candida albicans [6]
  AC50: 9.53 µM (active)

## O=S(=O)(c1ccccc1)c1cnc(-c2cccnc2)nc1-c1ccc(Cl)cc1Cl
Escherichia coli [7]
  AC50: 150 µM (active)
Escherichia coli [8]
  AC50: 224 µM (active)

## Cc1ccc2cc(C(c3nnnn3Cc3ccccc3)N3CCc4ccccc43)c(O)nc2c1 (configuration not stated)
Mu-type opioid receptor
  EC50: > 92.5 µM (inactive)
[9]
  EC50: > 92.5 µM (inactive)
[10]
  EC50: > 92.5 µM (inactive)

## O=C(c1ccc(F)cc1)N1CCN(c2ccnc3cc(Cl)ccc23)CC1
Candida albicans [11]
  AC50: > 260 µM (inactive)
Candida albicans [12]
  AC50: 1.19 µM (active)
Candida albicans [13]
  AC50: 0.57 µM (active)
Candida albicans [14]
  AC50: 1.33 µM (active)
Candida albicans [15]
  AC50: 3.2 µM (active)

## CCCCC1C(=O)N(c2ccccc2)N(c2ccc(O)cc2)C1=O (configuration not stated) [OXYPHENBUTAZONE ANHYDROUS]
A-375 [16]
  AC50: > 35 µM (active)
[17]
  IC50: > 80 µM (inactive)
[18]
  IC50: > 10 µM (inactive)
A-375 [19]
  AC50: > 35 µM (active)
[20]
  AC50: 9.85 µM (active)
[21]
  IC50: > 10 µM (inactive)
